In US7381746B2, “2-Aminobicyclo[3.1.0]hexane-2,6-dicarboxylic acid derivative” (Taisho Pharmaceutical Co., Ltd., priority 2003, dated 2008) one finds melting point data, which are given here for 15 compounds.

What is called melting point is the temperature, or range, at which the solid turns liquid. Take `N[C@]1(C(=O)O)[C@H]2[C@@H](C[C@H]1SCc1cccs1)[C@]2(F)C(=O)O` [Compound 1, (1R,2S,3R,5R,6R)-2-amino-3-(thiophene-2-ylmethylsulfanyl)-6-fluorobicyclo[3.1.0]hexane-2,6-dicarboxylic acid]: the melting point is greater than 230 °C. As for `N[C@]1(C(=O)O)[C@H]2[C@@H](C[C@H]1SCc1ccccc1-c1ccccc1)[C@]2(F)C(=O)O` [Compound 2, (1R,2S,3R,5R,6R)-2-amino-3-(2-phenylbenzylsulfanyl)-6-fluorobicyclo[3.1.0]hexane-2,6-dicarboxylic acid], the melting point is greater than 230 °C. With `COc1ccc(CS[C@@H]2C[C@@H]3[C@H]([C@]2(N)C(=O)O)[C@@]3(F)C(=O)O)cc1` [Compound 3, (1R,2S,3R,5R,6R)-2-amino-3-(4-methoxybenzylsulfanyl)-6-fluorobicyclo[3.1.0]hexane-2,6-dicarboxylic acid], the melting point is greater than 240 °C. To `N[C@]1(C(=O)O)[C@H]2[C@@H](C[C@H]1SCc1ccc(F)cc1)[C@]2(F)C(=O)O` [Compound 4, (1R,2S,3R,5R,6R)-2-amino-3-(4-fluorobenzylsulfanyl)-6-fluorobicyclo[3.1.0]hexane-2,6-dicarboxylic acid] belongs greater than 243 °C; to `CC(C)(C)c1ccc(CS[C@@H]2C[C@@H]3[C@H]([C@]2(N)C(=O)O)[C@@]3(F)C(=O)O)cc1` [Compound 5, (1R,2S,3R,5R,6R)-2-amino-3-(4-t-butylbenzylsulfanyl)-6-fluorobicyclo[3.1.0]hexane-2,6-dicarboxylic acid], greater than 271 °C; to `N[C@]1(C(=O)O)[C@H]2[C@@H](C[C@H]1SCc1cccc(C(F)(F)F)c1)[C@]2(F)C(=O)O` [Compound 6, (1R,2S,3R,5R,6R)-2-amino-3-(3-trifluoromethylbenzylsulfanyl)-6-fluorobicyclo[3.1.0]hexane-2,6-dicarboxylic acid], greater than 271 °C. In the case of `N[C@]1(C(=O)O)[C@H]2[C@@H](C[C@H]1SCc1ccc3ccccc3c1Br)[C@]2(F)C(=O)O` [Compound 7, (1R,2S,3R,5R,6R)-2-amino-3-(1-bromo-naphthalene-2-ylmethylsulfanyl)-6-fluorobicyclo[3.1.0]hexane-2,6-dicarboxylic acid] it was greater than 280 °C; in that of `N[C@]1(C(=O)O)[C@@H]2[C@@H](C[C@H]1SCc1ccc(Cl)c(Cl)c1)[C@H]2C(=O)O` [Compound 8, (1R,2S,3R,5R,6R)-2-amino-3-(3,4-dichlorobenzylsulfanyl)-bicyclo[3.1.0]hexane-2,6-dicarboxylic acid], greater than 289 °C; in that of `N[C@]1(C(=O)O)[C@H]2[C@@H](C[C@H]1SCc1ccc(Cl)c(Cl)c1)[C@]2(F)C(=O)O` [Compound 9, (1R,2S,3R,5R,6R)-2-amino-3-(3,4-dichlorobenzylsulfanyl)-6-fluorobicyclo[3.1.0]hexane-2,6-dicarboxylic acid], greater than 220 °C. In the case of `N[C@]1(C(=O)O)[C@H]2[C@@H](C[C@H]1Sc1ccc(Cl)c(Cl)c1)[C@]2(F)C(=O)O` [Compound 12, (1R,2S,3R,5R,6R)-2-amino-3-(3,4-dichlorophenylsulfanyl)-6-fluorobicyclo[3.1.0]hexane-2,6-dicarboxylic acid] it was greater than 235 °C; in that of `N[C@]1(C(=O)O)[C@H]2[C@@H](C[C@H]1SCc1c(F)ccc(Cl)c1F)[C@]2(F)C(=O)O` [Compound 13, (1R,2S,3R,5R,6R)-2-amino-3-(3-chloro-2,6-difluorobenzylsulfanyl)-6-fluorobicyclo[3.1.0]hexane-2,6-dicarboxylic acid], greater than 234 °C. On to `CC(S[C@@H]1C[C@@H]2[C@H]([C@]1(N)C(=O)O)[C@@]2(F)C(=O)O)c1ccccc1` (stereo partly drawn) [Compound 15, (1R,2S,3R,5R,6R)-2-amino-3-(1-phenyl-ethylsulfanyl)-6-fluorobicyclo[3.1.0]hexane-2,6-dicarboxylic acid], for which the melting point was greater than 307 °C. In the case of `N[C@]1(C(=O)O)[C@H]2[C@@H](C[C@H]1SC(c1ccc(F)cc1)c1ccc(F)cc1)[C@]2(F)C(=O)O` [Compound 16, (1R,2S,3R,5R,6R)-2-amino-3-[bis-(4-fluorophenyl)methylsulfanyl]-6-fluorobicyclo[3.1.0]hexane-2,6-dicarboxylic acid], the melting point is greater than 243 °C. To `N[C@@H]1C[C@@H]2[C@H]([C@]1(N)C(=O)O)[C@@]2(F)C(=O)O` [Compound 17, (1R,2R,3R,5R,6R)-2,3-diamino-6-fluorobicyclo[3.1.0]hexane-2,6-dicarboxylic acid] belongs greater than 256 °C; to `N[C@]1(C(=O)O)[C@H]2[C@@H](C[C@H]1NCc1ccc(Cl)c(Cl)c1)[C@]2(F)C(=O)O` [Compound 18, (1R,2R,3R,5R,6R)-2-amino-3-(3,4-dichlorobenzylamino)-6-fluorobicyclo[3.1.0]hexane-2,6-dicarboxylic acid], greater than 190 °C.
